Test results published in patent US20210403435A1, “HERBICIDAL COMPOUNDS” (SYNGENTA CROP PROTECTION AG, priority 2018, published 2021).

Columns and labels:
Test in all cases: Post-emergence efficacy, glasshouse, evaluated after 13 days
Format in all cases: in vivo
[1] = tested on: Amaranthus palmeri (AMAPA); conditions: Amaranthus palmeri, 312 h; post-emergence application, 500 g/Ha, evaluated after 13 days; read-out: Control of weed species AMAPA (100=total damage to plant; 0=no damage to plant)
Summary of the method: (§1)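 Injury assessed 13 days after a post-emergence spray, 0 = no damage and 100 = total damage. Spray liquid: compound in acetone/IF50 (Emulsogen EL360, N-methylpyrrolidone, Dowanol DPM), diluted with 0.25% or 1% sodium lauryl ether sulphate plus 1% ammonium sulphate.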

[2] = tested on: Chenopodium album (CHEAL); conditions: Chenopodium album, 312 h; post-emergence application, 500 g/Ha, evaluated after 13 days; read-out: Control of weed species CHEAL (100=total damage to plant; 0=no damage to plant)
Summary of the method: as §1

[3] = tested on: Digitaria sanguinalis (DIGSA); conditions: Digitaria sanguinalis, 312 h; post-emergence application, 500 g/Ha, evaluated after 13 days; read-out: Control of weed species DIGSA (100=total damage to plant; 0=no damage to plant)
Summary of the method: as §1

[4] = tested on: Echinochloa crus-galli (ECHCG); conditions: Echinochloa crus-galli, 312 h; post-emergence application, 500 g/Ha, evaluated after 13 days; read-out: Control of weed species ECHCG (100=total damage to plant; 0=no damage to plant)
Summary of the method: as §1

Eleusine indica (ELEIN) = conditions: Eleusine indica, 312 h; post-emergence application, 500 g/Ha, evaluated after 13 days; read-out: Control of weed species ELEIN (100=total damage to plant; 0=no damage to plant)
Summary of the method: as §1

[5] = tested on: Euphorbia heterophylla (EPHHL); conditions: Euphorbia heterophylla, 312 h; post-emergence application, 500 g/Ha, evaluated after 13 days; read-out: Control of weed species EPHHL (100=total damage to plant; 0=no damage to plant)
Summary of the method: as §1

[6] = tested on: Ipomoea hederacea (IPOHE); conditions: Ipomoea hederacea, 312 h; post-emergence application, 500 g/Ha, evaluated after 13 days; read-out: Control of weed species IPOHE (100=total damage to plant; 0=no damage to plant)
Summary of the method: as §1

Lolium perenne (LOLPE) = conditions: Lolium perenne, 312 h; post-emergence application, 500 g/Ha, evaluated after 13 days; read-out: Control of weed species LOLPE (100=total damage to plant; 0=no damage to plant)
Summary of the method: as §1

Setaria faberi (SETFA) = conditions: Setaria faberi, 312 h; post-emergence application, 500 g/Ha, evaluated after 13 days; read-out: Control of weed species SETFA (100=total damage to plant; 0=no damage to plant)
Summary of the method: as §1

Row | Structure (SMILES) | pest or weed control at 500 g/ha [1] [%] | pest or weed control at 500 g/ha [2] [%] | pest or weed control at 500 g/ha [3] [%] | pest or weed control at 500 g/ha [4] [%] | pest or weed control at 500 g/ha (Eleusine indica (ELEIN)) [%] | pest or weed control at 500 g/ha [5] [%] | pest or weed control at 500 g/ha [6] [%] | pest or weed control at 500 g/ha (Lolium perenne (LOLPE)) [%] | pest or weed control at 500 g/ha (Setaria faberi (SETFA)) [%]
1 | CC1(NC(=O)c2cc[n+](CCC(=O)O)nc2)CC1 [Compound A92] | 100 | 100 | 100 | 80 | 90 | 100 | 50 | 90 | 100
2 | O=C(O)CC[n+]1ccc(C(=O)NC2(C(F)(F)F)CC2)cn1 [Compound A94] | 100 | 100 | 90 | 80 | 100 | 90 | 60 | 80 | 90
3 | O=C(O)CC[n+]1ccc(C(=O)NC2CC2(F)F)cn1 (stereo not drawn) [Compound A95] | 100 | 100 | 100 | 80 | 100 | 100 | 60 | 60 | 100
4 | N#Cc1ccc(CNC(=O)c2cc[n+](CCC(=O)O)nc2)cc1 [Compound A96] | 100 | 80 | 20 | 20 | 50 | 100 | 40 | 20 | 30
5 | O=C(O)CC[n+]1ccc(C(=O)NCC(F)(F)C(F)(F)F)cn1 [Compound A97] | 100 | 100 | 90 | 60 | 60 | 90 | 30 | 90 | 90
6 | O=C(O)CC[n+]1ccc(C(=O)NCc2ccc(C(F)(F)F)cc2)cn1 [Compound A98] | 90 | 70 | 60 | 50 | 90 | 100 | 20 | 0 | 30
7 | CC1(NC(=O)c2cc[n+](CCNS(=O)(=O)[O-])nc2)CC1 [Compound A99] | 50 | 40 | 100 | 60 | 70 | 40 | 30 | 40 | 90
8 | CC(C)(CO)NC(=O)c1cc[n+](CCC(=O)O)nc1 [Compound A100] | 60 | 20 | 70 | 60 | 40 | 30 | 20 | 50 | 90
9 | CC1CC1NC(=O)c1cc[n+](CCC(=O)O)nc1 (stereo not drawn) [Compound A101] | 100 | 100 | 100 | 90 | 70 | 50 | 50 | 80 | 90
10 | O=C(O)CC[n+]1ccc(C(=O)Nc2nccs2)cn1 [Compound A102] | 100 | 60 | 0 | 0 | 0 | 20 | 20 | 0 | 10
11 | C[S+]([O-])CCNC(=O)c1cc[n+](CCC(=O)O)nc1 (stereo not drawn) [Compound A103] | 90 | 90 | 90 | 80 | 90 | 50 | 50 | 40 | 100
12 | CS(=O)(=O)CCNC(=O)c1cc[n+](CCC(=O)O)nc1 [Compound A104] | 100 | 100 | 100 | 70 | 100 | 100 | 80 | 70 | 100
13 | O=C(O)CC[n+]1ccc(C(=O)Nc2ccc(F)cc2F)cn1 [Compound A106] | 100 | 50 | 40 | 10 | 70 | 60 | 30 | 50 | 90
14 | CN(CC#N)C(=O)c1cc[n+](CCC(=O)O)nc1 [Compound A107] | 100 | 20 | 40 | 60 | 20 | 100 | 20 | 0 | 60
15 | O=C(O)CC[n+]1ccc(C(=O)N2CCS(=O)(=O)CC2)cn1 [Compound A108] | 100 | 100 | 90 | 70 | 80 | 80 | 70 | 40 | 90
16 | O=C(O)CC[n+]1ccc(C(=O)N2CC[S+]([O-])CC2)cn1 [Compound A109] | 100 | 90 | 80 | 70 | 90 | 90 | 60 | 30 | 90
17 | CN(C)S(=O)(=O)CCNC(=O)c1cc[n+](CCC(=O)O)nc1 [Compound A110] | 90 | 50 | 100 | 50 | 30 | 60 | 20 | 60 | 90
18 | CNS(=O)(=O)CCNC(=O)c1cc[n+](CCC(=O)O)nc1 [Compound A111] | 100 | 90 | 100 | 90 | 100 | 90 | 40 | 70 | 100
19 | O=C(O)CC[n+]1ccc(C(=O)N2CCSCC2)cn1 [Compound A112] | 100 | 90 | 100 | 40 | 70 | 90 | 50 | 30 | 90
20 | N#CCCNC(=O)c1cc[n+](CCC(=O)O)nc1 [Compound A113] | 100 | 80 | 100 | 90 | 100 | 90 | 30 | 90 | 100
